Experimental data taken from patent US9145392B2, “Imidazole amines as modulators of kinase activity” (Merck Patent GmbH, priority 2011, dated 2015).

What was measured:
P70S6K (T412E mutant) = P70S6K (T412E mutant) (Homo sapiens (Human), UniProt P23443, T412E); assay: P70S6K enzyme assay; format: biochemical; conditions: read-out: IC50 p70S6K
How it was run: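 Phosphorylated product and substrate peptide separated by microfluidic capillary electrophoresis (Caliper LabChip 3000), product peaks resolving before substrate.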

His-AKT (Full Length) = His-AKT (Full Length) (Homo sapiens (Human), UniProt P31749); assay: AKT enzyme assay; format: biochemical; conditions: read-out: IC50 AKT
Chain of His-AKT (Full Length) (P31749 whole entry): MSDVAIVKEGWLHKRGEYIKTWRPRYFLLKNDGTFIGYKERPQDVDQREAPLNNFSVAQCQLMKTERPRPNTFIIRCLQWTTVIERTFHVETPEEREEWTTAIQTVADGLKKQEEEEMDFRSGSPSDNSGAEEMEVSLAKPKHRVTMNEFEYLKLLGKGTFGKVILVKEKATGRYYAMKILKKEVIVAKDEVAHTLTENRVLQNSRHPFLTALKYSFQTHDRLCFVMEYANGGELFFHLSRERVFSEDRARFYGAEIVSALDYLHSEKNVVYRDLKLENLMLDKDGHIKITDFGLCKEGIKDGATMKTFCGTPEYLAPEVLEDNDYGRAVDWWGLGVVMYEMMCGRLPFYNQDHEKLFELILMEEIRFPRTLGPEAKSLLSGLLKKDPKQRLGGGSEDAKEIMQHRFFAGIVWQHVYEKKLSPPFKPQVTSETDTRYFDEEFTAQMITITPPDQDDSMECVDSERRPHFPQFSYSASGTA

Chain of P70S6K (T412E mutant) (P23443 whole entry T412E): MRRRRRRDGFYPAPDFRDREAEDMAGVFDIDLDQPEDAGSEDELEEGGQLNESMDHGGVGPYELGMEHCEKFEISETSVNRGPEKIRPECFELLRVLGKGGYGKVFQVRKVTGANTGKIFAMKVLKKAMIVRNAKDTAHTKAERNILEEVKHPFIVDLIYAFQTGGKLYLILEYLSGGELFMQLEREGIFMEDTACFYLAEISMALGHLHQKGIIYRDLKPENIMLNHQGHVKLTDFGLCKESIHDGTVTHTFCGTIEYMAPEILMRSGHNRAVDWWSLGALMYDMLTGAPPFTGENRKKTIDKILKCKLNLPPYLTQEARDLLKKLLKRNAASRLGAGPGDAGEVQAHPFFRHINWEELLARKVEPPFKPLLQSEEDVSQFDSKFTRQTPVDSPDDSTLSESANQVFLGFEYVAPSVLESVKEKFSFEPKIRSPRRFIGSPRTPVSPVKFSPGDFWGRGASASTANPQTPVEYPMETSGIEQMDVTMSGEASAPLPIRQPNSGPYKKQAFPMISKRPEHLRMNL

Question: For `CCc1c(N)ncnc1N1CCC(c2nc(-c3ccc(C(F)(F)F)c(F)c3)cn2CCN2CCC(F)CC2)CC1` [Compound 249], which IC50 (P70S6K (T412E mutant)) is on record?
Answer: Its IC50 is 10 nM.

Question: And the IC50 (His-AKT (Full Length))?
Answer: Its IC50 is 86 nM.

Question: How did the IC50 (P70S6K (T412E mutant)) turn out when `CCc1c(N)ncnc1N1CCC(c2nc(-c3ccc(F)cc3)cn2CCN2CC(F)C2)CC1` [Compound 200, 5-Ethyl-6-{4-[1-[2-(3-fluoro-azetidin-1-yl)-ethyl]-4-(4-fluoro-phenyl)-1H-imidazol-2-yl]-piperidin-1-yl}-pyrimidin-4-ylamine] was run?
Answer: Its IC50 is 21 nM.

Question: What about the IC50 (His-AKT (Full Length)) of the same compound?
Answer: Its IC50 is 640 nM.

Question: Which IC50 (P70S6K (T412E mutant)) does the source give for `Nc1ncnc(N2CCC(c3nc(-c4ccc(F)cc4)cn3CCN3CCCC3)CC2)c1C1CCC1` [Compound 256] here?
Answer: Its IC50 is 6.5 nM.

Question: What about the IC50 (His-AKT (Full Length)) of the same compound?
Answer: The IC50 was 11 nM.

Question: With `CCc1c(N)ncnc1N1CCC(c2nc(-c3ccnc(C(F)(F)F)c3)cn2CCN2CCC2)CC1` [Compound 105, 6-(4-(1-(2-(azetidin-1-yl)ethyl)-4-(2-(trifluoromethyl)pyridin-4-yl)-1H-imidazol-2-yl)piperidin-1-yl)-5-ethylpyrimidin-4-amine] as the compound, how does the IC50 (P70S6K (T412E mutant)) read?
Answer: Its IC50 is 2.7 nM.

Question: And the IC50 (His-AKT (Full Length))?
Answer: The IC50 was 13 nM.

Question: With `COc1cc(-c2cn(CCN3CCC3)c(C3CCN(c4ncnc(N)c4C(N)=O)CC3)n2)ccc1F` [Compound 121, 4-amino-6-(4-(1-(2-(azetidin-1-yl)ethyl)-4-(4-fluoro-3-methoxyphenyl)-1H-imidazol-2-yl)piperidin-1-yl)pyrimidine-5-carboxamide] as the compound, how does the IC50 (P70S6K (T412E mutant)) read?
Answer: The IC50 was 1 nM.

Question: And the IC50 (His-AKT (Full Length))?
Answer: The IC50 was 2.4 nM.

Question: With `NC(=O)c1c(N)ncnc1N1CCC(c2nc(C3CCCCC3)cn2CCN2CCC2)CC1` [Compound 80, 4-Amino-6-{4-[1-(2-azetidin-1-yl-ethyl)-4-cyclohexyl-1H-imidazol-2-yl]-piperidin-1-yl}-pyrimidine-5-carboxylic acid amide] as the compound, how does the IC50 (P70S6K (T412E mutant)) read?
Answer: The IC50 was 95 nM.

Question: What about the IC50 (His-AKT (Full Length)) of the same compound?
Answer: The IC50 was 1400 nM.

Question: Which results are given for `Cc1cc(-c2cn(CCNCC3CC3)c(C3CCN(c4ncnc(N)c4C#N)CC3)n2)ccc1F` [Compound 378, 4-Amino-6-{4-[1-[2-(cyclopropylmethyl-amino)-ethyl]-4-(4-fluoro-3-methyl-phenyl)-1H-imidazol-2-yl]-piperidin-1-yl}-pyrimidine-5-carbonitrile]?
Answer: IC50 (P70S6K (T412E mutant)): 0.8 nM; IC50 (His-AKT (Full Length)): 2.3 nM

Question: For `CC(C)c1cc(-c2cn(CCN3CCC3)c(C3CCN(c4ncnc(N)c4C(N)=O)CC3)n2)ccn1` [Compound 332], which IC50 (P70S6K (T412E mutant)) is on record?
Answer: Its IC50 is 3.8 nM.

Question: And the IC50 (His-AKT (Full Length))?
Answer: The IC50 was 37 nM.

Question: With `CCOc1c(N)ncnc1N1CCC(c2nc(-c3ccc(F)c(C)c3)cn2CCN2CCCC2)CC1` [Compound 298] as the compound, how does the IC50 (P70S6K (T412E mutant)) read?
Answer: The IC50 was 6.8 nM.

Question: What about the IC50 (His-AKT (Full Length)) of the same compound?
Answer: Its IC50 is 6.6 nM.

Question: Which results are given for `CS(=O)(=O)c1cccc(-c2cn(CCN3CCC3)c(C3CCN(c4ncnc(N)c4C#N)CC3)n2)c1` [Compound 355, 4-Amino-6-{4-[1-(2-azetidin-1-yl-ethyl)-4-(3-methanesulfonyl-phenyl)-1H-imidazol-2-yl]-piperidin-1-yl}-pyrimidine-5-carbonitrile]?
Answer: IC50 (P70S6K (T412E mutant)): 17 nM; IC50 (His-AKT (Full Length)): 80 nM

Question: `Nc1ncnc(N2CCC(c3nc(-c4cccc(F)c4)cn3CCN3CCCC3)CC2)c1Br` [Compound 228] was tested. Which IC50 (P70S6K (T412E mutant)) did it give?
Answer: Its IC50 is 1.4 nM.

Question: What about the IC50 (His-AKT (Full Length)) of the same compound?
Answer: The IC50 was 5.9 nM.

Question: What does the source list for `COc1c(N)ncnc1N1CCC(c2nc(-c3ccc(F)c(C(F)(F)F)c3)cn2C)CC1` [Compound 9, 6-{4-[4-(4-Fluoro-3-trifluoromethyl-phenyl)-1-methyl-1H-imidazol-2-yl]-piperidin-1-yl}-5-methoxy-pyrimidin-4-ylamine]?
Answer: IC50 (P70S6K (T412E mutant)): 2.1 nM; IC50 (His-AKT (Full Length)): 440 nM

Question: With `CCc1c(N)ncnc1N1CCC(c2nc(-c3ccnc(Cl)c3)cn2CCN2CCC2)CC1` [Compound 104, 6-(4-(1-(2-(azetidin-1-yl)ethyl)-4-(2-chloropyridin-4-yl)-1H-imidazol-2-yl)piperidin-1-yl)-5-ethylpyrimidin-4-amine] as the compound, how does the IC50 (P70S6K (T412E mutant)) read?
Answer: Its IC50 is 3.1 nM.

Question: And the IC50 (His-AKT (Full Length))?
Answer: Its IC50 is 16.5 nM.

Question: What does the source list for `Cc1cc(-c2cn(CCN3CCCC3)c(C3CCN(c4ncnc(N)c4C#N)CC3)n2)ccc1F` [Compound 324]?
Answer: IC50 (P70S6K (T412E mutant)): 2.8 nM; IC50 (His-AKT (Full Length)): 3.5 nM

Question: For `NC(=O)c1c(N)ncnc1N1CCC(c2nc(-c3ccc(F)c(C(F)(F)F)c3)cn2CCO)CC1` [Compound 395, 4-Amino-6-{4-[4-(4-fluoro-3-trifluoromethyl-phenyl)-1-(2-hydroxy-ethyl)-1H-imidazol-2-yl]-piperidin-1-yl}-pyrimidine-5-carboxylic acid amide], which IC50 (P70S6K (T412E mutant)) is on record?
Answer: Its IC50 is 1.6 nM.

Question: And the IC50 (His-AKT (Full Length))?
Answer: The IC50 was 180 nM.

Question: Which results are given for `Cc1cc(-c2cn(CCN(C)C)c(C3CCN(c4ncnc(N)c4C(N)=O)CC3)n2)ccc1F` [Compound 348]?
Answer: IC50 (P70S6K (T412E mutant)): 4 nM; IC50 (His-AKT (Full Length)): 32 nM

Question: Which IC50 (P70S6K (T412E mutant)) does the source give for `CC(C)Oc1c(N)ncnc1N1CCC(c2nc(-c3ccnc(C(F)(F)F)c3)cn2CCN2CCC2)CC1` [Compound 117, 6-(4-(1-(2-(azetidin-1-yl)ethyl)-4-(2-(trifluoromethyl)pyridin-4-yl)-1H-imidazol-2-yl)piperidin-1-yl)-5-isopropoxypyrimidin-4-amine] here?
Answer: The IC50 was 4.9 nM.

Question: What about the IC50 (His-AKT (Full Length)) of the same compound?
Answer: The IC50 was 9.1 nM.

Question: With `Nc1cc(N2CCC(c3nc(-c4ccc(C(F)(F)F)cc4)cn3CCN3CCCC3)CC2)ncn1` [Compound 270] as the compound, how does the IC50 (P70S6K (T412E mutant)) read?
Answer: Its IC50 is 360 nM.

Question: And the IC50 (His-AKT (Full Length))?
Answer: The IC50 was 1000 nM.

Question: Which results are given for `Nc1ncnc(N2CCC(c3nc(-c4ccc(F)c(F)c4)cn3CCN3CCCC3)CC2)c1Br` [Compound 226]?
Answer: IC50 (P70S6K (T412E mutant)): 1.3 nM; IC50 (His-AKT (Full Length)): 1.7 nM

Question: For `CCC(C)(C)NCCn1cc(-c2ccc(F)c(C(F)(F)F)c2)nc1C1CCN(c2ncnc(N)c2C(N)=O)CC1` [Compound 388, 4-Amino-6-{4-[1-[2-(1,1-dimethyl-propylamino)-ethyl]-4-(4-fluoro-3-trifluoromethyl-phenyl)-1H-imidazol-2-yl]-piperidin-1-yl}-pyrimidine-5-carboxylic acid amide], which IC50 (P70S6K (T412E mutant)) is on record?
Answer: Its IC50 is 2 nM.

Question: And the IC50 (His-AKT (Full Length))?
Answer: Its IC50 is 13 nM.

Question: For `N#Cc1c(N)ncnc1N1CCC(c2nc(-c3ccc(F)c(C(F)(F)F)c3)cn2C2CNC2)CC1` [Compound 142, 4-amino-6-(4-(1-(azetidin-3-yl)-4-(4-fluoro-3-(trifluoromethyl)phenyl)-1H-imidazol-2-yl)piperidin-1-yl)pyrimidine-5-carbonitrile], which IC50 (P70S6K (T412E mutant)) is on record?
Answer: The IC50 was 6.4 nM.

Question: What about the IC50 (His-AKT (Full Length)) of the same compound?
Answer: Its IC50 is 240 nM.

Question: Which results are given for `CNCCn1cc(-c2ccnc(C(F)(F)F)c2)nc1C1CCN(c2ncnc(N)c2Cl)CC1` [Compound 172, 5-chloro-6-(4-(1-(2-(methylamino)ethyl)-4-(2-(trifluoromethyl)pyridin-4-yl)-1H-imidazol-2-yl)piperidin-1-yl)pyrimidin-4-amine]?
Answer: IC50 (P70S6K (T412E mutant)): 2 nM; IC50 (His-AKT (Full Length)): 1.4 nM

Question: What does the source list for `Cc1cc(-c2cn(CC3CNC3)c(C3CCN(c4ncnc(N)c4C(C)C)CC3)n2)ccc1F` [Compound 189, 6-(4-(1-(azetidin-3-ylmethyl)-4-(4-fluoro-3-methylphenyl)-1H-imidazol-2-yl)piperidin-1-yl)-5-isopropylpyrimidin-4-amine]?
Answer: IC50 (P70S6K (T412E mutant)): 1.1 nM; IC50 (His-AKT (Full Length)): 4.5 nM

Question: What does the source list for `N#Cc1c(N)ncnc1N1CCC(c2nc(-c3ccnc(C(F)(F)F)c3)cn2CCN2CCC2)CC1` [Compound 125, 4-amino-6-(4-(1-(2-(azetidin-1-yl)ethyl)-4-(2-(trifluoromethyl)pyridin-4-yl)-1H-imidazol-2-yl)piperidin-1-yl)pyrimidine-5-carbonitrile]?
Answer: IC50 (P70S6K (T412E mutant)): 1.5 nM; IC50 (His-AKT (Full Length)): 9.7 nM

Question: `CC(C)(C)NCCn1cc(-c2ccc(F)c(C(F)(F)F)c2)nc1C1CCN(c2ncnc(N)c2C(N)=O)CC1` [Compound 377, 4-Amino-6-{4-[1-(2-tert-butylamino-ethyl)-4-(4-fluoro-3-trifluoromethyl-phenyl)-1H-imidazol-2-yl]-piperidin-1-yl}-pyrimidine-5-carboxylic acid amide] was tested. Which IC50 (P70S6K (T412E mutant)) did it give?
Answer: Its IC50 is 2 nM.

Question: And the IC50 (His-AKT (Full Length))?
Answer: The IC50 was 9.7 nM.

Question: For `CCc1c(N)ncnc1N1CCC(c2nc(-c3ccc(OC)c(C(N)=O)c3)cn2CCN2CCC2)CC1` [Compound 107, 5-(2-(1-(6-amino-5-ethylpyrimidin-4-yl)piperidin-4-yl)-1-(2-(azetidin-1-yl)ethyl)-1H-imidazol-4-yl)-2-methoxybenzamide], which IC50 (P70S6K (T412E mutant)) is on record?
Answer: The IC50 was 98 nM.

Question: What about the IC50 (His-AKT (Full Length)) of the same compound?
Answer: Its IC50 is 160 nM.

Question: How did the IC50 (P70S6K (T412E mutant)) turn out when `CC(C)NCCn1cc(-c2ccc(F)c(C(F)(F)F)c2)nc1C1CCN(c2ncnc(N)c2C#N)CC1` [Compound 369, 4-Amino-6-{4-[4-(4-fluoro-3-trifluoromethyl-phenyl)-1-(2-isopropylamino-ethyl)-1H-imidazol-2-yl]-piperidin-1-yl}-pyrimidine-5-carbonitrile] was run?
Answer: The IC50 was 3.6 nM.

Question: And the IC50 (His-AKT (Full Length))?
Answer: Its IC50 is 5.4 nM.

Question: Which IC50 (P70S6K (T412E mutant)) does the source give for `Cn1cc(-c2ccc(F)c(C(F)(F)F)c2)nc1C1CCN(c2ncnc(N)c2Br)CC1` [Compound 1, 5-Bromo-6-{4-[4-(4-fluoro-3-trifluoromethyl-phenyl)-1-methyl-1H-imidazol-2-yl]-piperidin-1-yl}-pyrimidin-4-ylamine] here?
Answer: Its IC50 is 2.1 nM.

Question: What about the IC50 (His-AKT (Full Length)) of the same compound?
Answer: Its IC50 is 66 nM.
